# In patent publication US20090054403A1, “Treatment of Post-Traumatic Stress Disorder” (priority 2007, published 2009):
# Legend:
# [1] = test system: plasma NE, DA and EPI; assay: Plasma catecholamines in beagle dogs, 2 mg/kg b.i.d. for 14.5 days; format: in vivo
# Description: A separate study was conducted in dogs to determine the effects of chronic administration of 2a on the plasma DA/NE ratio. Animals were randomized to receive, orally, either placebo (empty capsule) or 2a (2 mg/kg, b.i.d) for 14.5 days. Daily blood samples were drawn, 6 h after the first dose, for the measurement of plasma concentrations of DA and NE. The samples were collected in tubes containing heparin and glutathione, centrifuged at […] and stored at −70° C. until analysis.
# Male Beagle dogs (Marshall farms, North Rose, N.Y.) weighing between 9-16 kg were used in the study. The animals were allowed water ad libitum and given food once daily at ˜10.00 AM. Animals were randomly assigned to one of the following treatment groups (n=8/group): placebo (empty capsule), or nepicastat at 2 mg/kg b.i.d (4 mg/kg/day). Each animal received 2 doses daily, morning and afternoon (8-10 hours apart). Daily blood samples (10 ml) were drawn 6 h after the AM dose for measurement of plasma levels of nepicastat and catecholamines. The blood was collected in tubes containing heparin and glutathione and centrifuged at −4° C. within 1 h of collection. The plasma was separated and divided into two samples, one for the measurement of plasma catecholamines and the other for analysis of nepicastat.
# Plasma NE, DA and EPI were anaylysed by HPLC using electrochemical detection. Plasma concentration of nepicastat was determined by HPLC using electrochemical detection.
# The BQL (below quantitation limit) in the DA concentration of dog 1 at day 10 was set to 0; ln (0) was set to missing. The analysis was performed using a mixed model (using PROC MIXED) with the day and treatment categorical variables being fixed and the dog within treatment being a random factor. For the fixed effects, the interaction between the day and the treatment was included, since the difference between the drug and placebo groups varies from day to day. Contrasts were calculated using the CONTRAST statement, which correctly takes into account the error terms for each particular contrast. In particular, the contrasts comparing the […] uses the dog mean square for its error term, while the comparisons used to establish steady state are all within dog comparisons, and require the error mean square.
# The time period of steady state was calculated using the Helmert transformation (cf. SAS PROC GLM manual). These transformations compare each treatment mean with the average of the treatment means of the time points following. The steady state period is defined to start at the first time point following the maximum time at which the Helmert contrast is statistically significant. However, since this method can fail to detect a smoothly changing process, as appears might be the case here, the slope of the analyte concentration during the steady state period also was calculated. The slope during the steady state period was calculated for each dog individually, yielding one slope per animal. Univariate statistics on the slopes were then calculated, with Normal theory confidence intervals built on the mean slope, and the hypothesis of slope equalling zero was tested, and its Normal theory p-value was calculated. This slope analysis was used as the basis for determining whether the steady state period was a period of changing concentration.
# [2] = test system: β-adrenergic receptor; assay: Left ventricular [3H]CGP-12177 saturation binding after treatment; set-up: species or system beagle dogs; conditions: 10 mg/kg/day
# Description: Ventricles were homogenized in 50 mM Tris-HCl, 5 mM Na2EDTA buffer (pH 7.4 at 4° C.) using a Polytron P-10 tissue disrupter (setting 10, 2×15 second bursts). Homogenates were centrifuged at 500×g for 10 minutes and the supernatants stored on ice. The pellets were washed by resuspension and centrifugation at 500×g and the supernatants combined. The combined supernatants were centrifuged at 48,000×g for 20 minutes. The pellets were washed by resuspension and centrifugation once in homogenizing buffer and twice in 50 mM Tris-HCl, 0.5 mM EDTA buffer (pH 7.4 at 4° C.). Membranes were stored at −70° C. until required. Saturation experiments were conducted using [^3H] CGP-12177 in buffer containing 50 mM Tris-HCl, 0.5 mM EDTA (pH 7.4 at 32° C.). Non-specific binding was defined by 10 uM isoproterenol. Total bound, non-specific bound and total count tubes were set up for eight concentrations of [^3H] […] Aquasol scintillation fluid was added to each vial and radioactivity determined by liquid scintillation counting. Saturation binding isotherms were analyzed after first converting total ligand concentrations to free ligand concentrations (total−bound=free). […] Tissue catecholamine levels were analyzed by comparing nepicastat-treated groups with the placebo (control) treated groups. […] Additionally, a linear orthogonal contrast was calculated for all three doses within the context of a one-way ANOVA. […]
# [3] = test system: mean arterial pressure, renal blood flow; assay: Arterial pressure and renal function in anesthetized SHR after iv dosing; format: in vivo; conditions: 3.0 mg/kg i.v.
# [4] = test system: dopamine/norepinephrine ratio; assay: Dose response of tissue dopamine/norepinephrine ratio 6 hours after a single oral dose; format: in vivo, SHR
smiles,measurement,setting,value
"Cl.NCc1c[nH]c(=S)n1[C@H]1CCc2c(F)cc(F)cc2C1 [nepicastat, (S)-5-Aminomethyl-1-(5,7-difluoro-1,2,3,4-tetrahydronaphth-2-yl)-2,3-dihydro-2-thioxo-1H-imidazole hydrochloride]",day of peak decrease in plasma EPI,[1]; 2 mg/kg b.i.d.,8 days
same,day of peak decrease in plasma NE,[1]; 2 mg/kg b.i.d.,6 days
same,day of peak increase in plasma DA,[1]; 2 mg/kg b.i.d.,7 days
same,day of peak increase in plasma DA/NE ratio,[1]; 2 mg/kg b.i.d.,6 days
same,decrease in plasma EPI vs placebo,[1]; 2 mg/kg b.i.d.,1.91 fold
same,decrease in plasma NE vs placebo,[1]; 2 mg/kg b.i.d.,2.1 fold
same,increase in plasma DA vs placebo,[1]; 2 mg/kg b.i.d.,7.5 fold
same,increase in plasma DA/NE ratio vs placebo,[1]; 2 mg/kg b.i.d.,13.6 fold
same,time to steady-state of effect on plasma DA,[1]; 2 mg/kg b.i.d.,~8 days post-dose
same,time to steady-state of effect on plasma EPI,[1]; 2 mg/kg b.i.d.,~6 days post-dose
same,time to steady-state of effect on plasma NE,[1]; 2 mg/kg b.i.d.,approximately 4 days post-dose
same,peak reduction in plasma concentration of noradrenaline,"[1]; 2 mg/kg b.i.d. po, day-6 of dosing",52%
same,peak increase in plasma concentration of dopamine,"[1]; 2 mg/kg b.i.d. po, day-7 of dosing",646%
same,time to peak effect on plasma DA/NE ratio,"[1]; 2 mg/kg b.i.d., 14.5 day treatment",6 to 7 days
same,"β-adrenergic receptor binding, treated vs vehicle left ventricular samples",[2],no difference
same,"renal blood flow, urine production, urinary sodium and potassium excretion",[3],did not lower renal blood flow or alter urine production or urinary excretion of sodium or potassium
same,mean arterial pressure,[3]; 3 hour period,decreased mean arterial pressure
same,"dose with significant change in dopamine/norepinephrine ratio, cerebral cortex",[4],10 mg/kg
same,"dose with significant change in dopamine/norepinephrine ratio, left ventricle",[4],3.0 mg/kg
same,"dose with significant change in dopamine/norepinephrine ratio, mesenteric artery",[4],0.3 mg/kg
